In US20210275488A1, “NOVEL COMPOUND ISOLATED FROM CERVI PARVUM CORNU, AND PHARMACEUTICAL USES THEREOF” (FNG RESEARCH CO., LTD., priority 2018, published 2021):

Key:
[1] = test system: peritoneal macrophages; experiment: Evaluation of cytotoxicity using MTT assay; format: cell-based, C57BL/6 mice; conditions: 24 hours
Protocol: (§1) As experimental animals, 8-week-old C57BL/6 mice were bred for 7 days under the environment of a temperature of 22±2° C., a relative humidity of 65±5% and a 12-hour cycle in light and dark, and then adapted to the laboratory environment, and then used for the experiment. Solid feed (Samyang feed) and water were sufficiently supplied.
(§2) HBSS was intraperitoneally injected into a mouse to extract macrophages, which was centrifuged at 3,000 rpm for 5 minutes, and then 100 units/mL of penicillin/streptomycin was added to DMEM medium with 10% fetal bovine serum (FBS), and peritoneal macrophage was isolated. It was incubated in a 37° C., 5% CO2 incubator for 24 hours, and then used in the experiment.
100 uL of the cultured peritoneal macrophages were dispensed into a 96-well plate at 3×10^5 cells/well and cultured overnight. After removing the medium, the peritoneal macrophage was treated with the compounds of Example 1 (PCA glycerol) and Example 2 (CPA glycerol) at different concentrations (10 μg/ml, 100 μg/ml, and 200 μg/ml, respectively), and then incubated for 24 hours in a 37° C., 5% CO2 incubator. After incubation, the medium was removed, 40 uL of MTT (5 mg/mL) reagent was dispensed and incubated for 4 hours in a CO2 incubator, the MTT reagent was removed, and 600 uL of DMSO reagent was dispensed, and then left at room temperature for 30 minutes. Then, the absorbance (OD) was measured at 540 nm with a microplate reader.

[2] = test system: TNF-α; experiment: Inhibition of TNF-α production in LPS-induced mouse peritoneal macrophages (ELISA); format: cell-based; conditions: LPS (1 μg/ml), 12 hours
Protocol: as §1, §2
(§3) The secretion amount of IL-6, IL-1β and TNF-α secreted from mouse peritoneal macrophages induced by lipopolysaccharide (LPS), which is an inflammatory response inducer, was measured by an ELISA assay (Millipore, USA) to thereby evaluate the anti-inflammatory activity.
(§4) In order to obtain a cell culture solution, mouse peritoneal macrophages were adjusted to 3×10^5 cells/mL, inoculated into a 96-well plate, cultured for 24 hours, and then the compounds of Example 1 (PCA glycerol), Example 2 (CPA glycerol) and Comparative Example (PLA glycerol) were treated at different concentrations (10 μg/ml, 100 μg/ml, and 200 μg/ml, respectively), and LPS (1 μg/ml) was treated. The normal group was untreated, and the control group was treated with only LPS (1 μg/ml) on peritoneal macrophages. After culturing for 12 hours, a supernatant was obtained by centrifugation. ELISA was run in microplates coated with anti-mouse IL-6, IL-1β and TNF-α as the capture antibody. Then, the cells were washed with phosphate buffered saline (PBST) containing 0.05% Tween 20, blocked with 10% FBS, and washed with PBST. The cell culture supernatant was dispensed into the wells, and reacted at room temperature for 2 hours. After the reaction, washing was performed with PBST and dilute biotinylated anti-mouse IL-6, IL-1β and TNF-α detection antibody and streptavidin-horseradish peroxydase conjugate were dispensed and reacted at room temperature for 1 hour. Then, washing was performed again with PBST, and an OPD solution was added, and then the mixture was subjected to dark reaction at room temperature for 30 minutes. After the reaction was terminated with 2N H2504, the absorbance was measured at 450 nm using a microplate reader.

[3] = test system: neutropenia induced by an anticancer agent (gemcitabine); experiment: Mouse experiment of antineoplastic chemotherapy-induced neutropenia (gemcitabine); format: in vivo, C57BL/6 mice; conditions: for Number of neutrophils: Gemcitabine (50 mg/kg) i.p. daily 3 weeks, compound 50 mg/kg oral daily 3 weeks, neutrophils in 1 μl of blood; for reduction in the number of neutrophils: 3 weeks, relative to normal group
Protocol: 50 mg/kg of gemcitabine, used as an anticancer agent, was injected intraperitoneally into C57BL/6 mice every day for 3 weeks and used as a control group. 50 mg/kg of the compounds of Example 1, Example 2, and Comparative Example 1 were orally administered for 3 weeks every day, and after 3 weeks, the number of neutrophils in 1 μl of blood was measured using an automatic blood sample analyzer (Auto Hematology Analyzer BC-5900, Mindray), and the results are shown in Table 7 and FIG. 11 below.

[4] = test system: NO production; experiment: Inhibition of NO production in LPS-treated peritoneal macrophages (Griess reagent); format: cell-based, C57BL/6 mice; conditions: 24 hours, LPS control group = 100
Protocol: as §1, §2
The cultured peritoneal macrophages were suspended in DMEM containing 10% FBS, dispensed into a 96-well plate at 5×10^5 cells/well and incubated for 24 hours in a 37° C., 5% CO2 incubator, and replaced with new DMEM medium. Then, the peritoneal macrophages were treated with each of the compounds of Examples 1 and 2 and Comparative Example at different concentrations (10 μg/ml, 100 μg/ml, and 200 μg/ml, respectively), and LPS (1 μg/ml) was treated. Then, the cells were incubated for 24 hours. After incubation, the supernatant was separated, centrifuged at 3000 rpm for 5 minutes, and the separated supernatant was dispensed onto a new microplate. The normal group was untreated, and the control group was treated with only LPS (1 μg/ml) on the peritoneal macrophages.
The same amount of Griess reagent (1% sulfanilamide, 0.1% naphthyl-ethylenediamine dihydrochloride, 2% phosphoric acid) was treated, and reacted at room temperature for 10 minutes. After the culture solution was reacted with the Griess solution for […], the absorbance (OD) was measured at 540 nm.

[5] = test system: IL-6; experiment: Inhibition of IL-6 production in LPS-induced mouse peritoneal macrophages (ELISA); format: cell-based; conditions: LPS (1 μg/ml), 12 hours
Protocol: as §1, §2, §3, §4

[6] = test system: neutropenia induced by an anticancer agent (tamoxifen); experiment: Mouse experiment of antineoplastic chemotherapy-induced neutropenia (tamoxifen); format: in vivo, C57BL/6 mice; conditions: for Number of neutrophils: Tamoxifen (50 mg/kg) i.p. daily 3 weeks, compound 50 mg/kg oral daily 3 weeks, neutrophils in 1 μl of blood; for decrease in the number of neutrophils: tamoxifen 50 mg/kg plus compound 50 mg/kg oral
Protocol: 50 mg/kg of Tamoxifen, used as an anticancer agent, was intraperitoneally injected into C57BL/6 mice every day for 3 weeks and used as a control group, and 50 mg/kg of the compounds of Example 1, Example 2, and Comparative Example 1 were orally administered for 3 weeks every day, and after 3 weeks, the number of neutrophils in 1 μl of blood was measured using an automatic blood sample analyzer (Auto Hematology Analyzer BC-5900, Mindray), and the results are shown in Table 8 and FIG. 12 below.

[7] = test system: IL-1β; experiment: Inhibition of IL-1β production in LPS-induced mouse peritoneal macrophages (ELISA); format: cell-based; conditions: LPS (1 μg/ml), 12 hours
Protocol: as §1, §2, §3, §4

[8] = gemcitabine 50 mg/kg plus compound 50 mg/kg oral
[9] = 3 weeks, relative to normal group

Row | Molecule | Cell viability (%) ([1]; 10 μg/ml) | Cell viability (%) ([1]; 100 μg/ml) | Cell viability (%) ([1]; 200 μg/ml) | TNF-α production amount ([2]; compound 10 μg/ml) | TNF-α production amount ([2]; compound 100 μg/ml) | TNF-α production amount ([2]; compound 200 μg/ml) | Number of neutrophils [3] | reduction in the number of neutrophils [3, 8] | NO production rate (%) ([4]; compound 10 μg/ml) | NO production rate (%) ([4]; compound 100 μg/ml) | NO production rate (%) ([4]; compound 200 μg/ml) | IL-6 production amount ([5]; compound 10 μg/ml) | IL-6 production amount ([5]; compound 100 μg/ml) | IL-6 production amount ([5]; compound 200 μg/ml) | Number of neutrophils [6] | decrease in the number of neutrophils [6, 9] | IL-1β Production amount ([7]; compound 10 μg/ml) | IL-1β Production amount ([7]; compound 100 μg/ml) | IL-1β Production amount ([7]; compound 200 μg/ml) | further results
1 | 1-Conjugated-Linoeoyl-2-Palmitoyl-3-Acetyl Glycerol [Example 2] | 100 ± 0.9% | 98.3 ± 1.7% | 98.0 ± 2.8% | 175 ± 7 pg/mL | 151 ± 10 pg/mL | 123 ± 7 pg/mL | 1142 ± 62 µL⁻¹ | 6.7% | 50 ± 2% | 44 ± 3% | 34 ± 1% | 325 ± 13 pg/mL | 234 ± 20 pg/mL | 179 ± 17 pg/mL | 1124 ± 57 µL⁻¹ | about 8.2% | 40 ± 1.7 pg/mL | 32 ± 2.4 pg/mL | 28 ± 1.7 pg/mL | 
2 | CCCCC/C=C\C/C=C\CCCCCCCC(=O)OC(COC(C)=O)COC(=O)CCCCCCCCCCCCCCC (centres unmarked) [Comparative Example, 1-Palmitoyl-2-Linoleoyl-3-Acetyl Glycerol, reference compound] |  |  |  | 184 ± 21 pg/mL | 155 ± 12 pg/mL | 137 ± 7 pg/mL | 1047 ± 42 µL⁻¹ | 14.5% | 56 ± 3% | 45 ± 2% | 41 ± 3% | 364 ± 16 pg/mL | 251 ± 24 pg/mL | 203 ± 25 pg/mL | 1066 ± 88 µL⁻¹ | 12.9% | 43 ± 2.2 pg/mL | 31 ± 2.4 pg/mL | 31 ± 3.1 pg/mL | 
3 | CC/C(=C(\c1ccccc1)c1ccc(OCCN(C)C)cc1)c1ccccc1 [tamoxifen, Tamoxifen, reference compound] |  |  |  |  |  |  |  |  |  |  |  |  |  |  |  |  |  |  |  | decrease in number of neutrophils ([6]; mice treated with tamoxifen 50 mg/kg i.p. alone (control group), 3 weeks, relative to normal group): about 37%
4 | 1-Palmitoyl-2-Conjugated-Linoleoyl-3-Acetyl Glycerol [Example 1] | 100 ± 2.1% | 98.3 ± 1.9% | 98.1 ± 1.2% | 170 ± 8 pg/mL | 153 ± 11 pg/mL | 121 ± 10 pg/mL | 1198 ± 43 µL⁻¹ | about 2% | 52 ± 3% | 43 ± 3% | 37 ± 4% | 321 ± 22 pg/mL | 225 ± 23 pg/mL | 180 ± 25 pg/mL | 1146 ± 63 µL⁻¹ | about 6.3% | 40 ± 2.9 pg/mL | 28 ± 2.3 pg/mL | 26 ± 2.8 pg/mL | 
5 | Nc1ccn([C@@H]2O[C@H](CO)[C@@H](O)C2(F)F)c(=O)n1 [gemcitabine, reference compound] |  |  |  |  |  |  |  |  |  |  |  |  |  |  |  |  |  |  |  | reduction in the number of neutrophils ([3]; mice treated with gemcitabine 50 mg/kg i.p. alone (control group)): about 45%
